Test results as given in patent US6740521B2, “High-sensitive detection of environmental pollutants” (priority 2001, dated 2004).
Where two headings read alike, the source gives them in different places.

System: CHO 2F1813 cells
Type: cell-based, Chinese hamster
[1] = 2F1813 strain compared with SV40-promoter control strain 5K95, FIG. 3 to FIG. 6

Row | Compound | Fluorescence value (β-galactosidase inducing activity) | Induction of the β-galactosidase activity expression [1] | Induction of the β-galactosidase activity expression
1 | C1COCCO1 [1,4-Dioxane] | 0˜27 RU | – | –
2 | [Cd] [Cadmium] | – | observed only in the 2F1813 stain | –
3 | CCCCC(CC)COC(=O)c1ccccc1C(=O)OCC(CC)CCCC (stereo not shown) [Di(ethylhexyl)phthalate] | – | observed only in the 2F1813 stain | –
4 | [Ni] [Nickel] | 1.3˜18 RU | – | observed only in the 2F1813 stain
5 | Clc1ccccc1Cl [o-Dichlorobenzene] | – | observed only in the 2F1813 stain | –
6 | Nonylphenol A | – | observed only in the 2F1813 stain | –
